Target: T1, SLK (Homo sapiens, UniProt Q9H2G2)
T1 construct: purchased Thermo Fisher Scientific (Life Technologies) SelectScreen
Assay: SelectScreen LanthaScreen
Assay type: binding
Details: read-out: % displacement
Procedure, shortened: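 Percent values come from Thermo SelectScreen profiling of NU5455, combining activity and binding assays. CSF1R was run in Z'LYTE format at Km app ATP, and CAMK1 in Adapta format with ATP listed at 10.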

T1 sequence (Q9H2G2 whole entry): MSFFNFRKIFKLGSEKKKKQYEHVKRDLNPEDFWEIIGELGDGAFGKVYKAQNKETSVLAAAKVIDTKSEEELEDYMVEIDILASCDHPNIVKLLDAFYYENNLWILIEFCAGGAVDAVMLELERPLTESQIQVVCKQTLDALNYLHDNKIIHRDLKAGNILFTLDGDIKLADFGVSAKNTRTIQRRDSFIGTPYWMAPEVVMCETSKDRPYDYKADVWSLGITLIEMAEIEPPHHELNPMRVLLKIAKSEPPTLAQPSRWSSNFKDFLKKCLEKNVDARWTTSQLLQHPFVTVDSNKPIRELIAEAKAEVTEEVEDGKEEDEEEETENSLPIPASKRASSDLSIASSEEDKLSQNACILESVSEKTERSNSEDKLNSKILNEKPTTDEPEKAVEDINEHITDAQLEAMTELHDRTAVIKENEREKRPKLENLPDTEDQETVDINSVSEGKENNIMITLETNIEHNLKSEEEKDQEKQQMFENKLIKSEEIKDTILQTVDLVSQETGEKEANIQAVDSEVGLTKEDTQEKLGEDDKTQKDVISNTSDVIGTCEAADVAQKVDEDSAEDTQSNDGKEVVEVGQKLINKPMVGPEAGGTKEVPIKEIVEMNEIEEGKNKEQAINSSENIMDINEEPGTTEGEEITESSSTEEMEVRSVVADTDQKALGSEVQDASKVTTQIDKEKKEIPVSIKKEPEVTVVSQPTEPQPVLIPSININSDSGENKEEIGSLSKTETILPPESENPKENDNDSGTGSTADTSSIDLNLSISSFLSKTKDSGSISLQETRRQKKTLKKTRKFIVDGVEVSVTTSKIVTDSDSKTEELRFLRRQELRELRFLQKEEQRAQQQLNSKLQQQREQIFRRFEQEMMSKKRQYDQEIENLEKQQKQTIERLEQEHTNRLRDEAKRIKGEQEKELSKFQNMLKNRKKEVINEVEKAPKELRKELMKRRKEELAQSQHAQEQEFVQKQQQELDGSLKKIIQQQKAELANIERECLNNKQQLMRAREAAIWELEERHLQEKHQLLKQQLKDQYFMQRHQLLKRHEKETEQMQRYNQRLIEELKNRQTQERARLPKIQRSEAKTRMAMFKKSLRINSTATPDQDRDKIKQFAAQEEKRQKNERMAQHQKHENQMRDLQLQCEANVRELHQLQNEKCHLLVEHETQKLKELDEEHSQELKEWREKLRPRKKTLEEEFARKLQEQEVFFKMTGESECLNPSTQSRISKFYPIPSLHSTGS

CN(C(=O)CN1CCOCC1)c1ccc2sc3c(-c4cccc5c(=O)cc(N6CC7CCC(C6)O7)oc45)cccc3c2c1 [NU5455]
inhibition at 1 µM: 1.5%
